Data on 6 molecules can be found in ChEMBL document CHEMBL5465560, “Selectivity Literature for EUbOPEN Chemogenomic Library” (2024).

Assay [1] deals with Glycogen synthase kinase-3 alpha (Homo sapiens, UniProt P49840). The assay is described as follows: Selectivity interaction (Competition-binding assay (DiscoverX)) EUB0001632a GSK3A.
Assay [2] has as its target Macrophage colony-stimulating factor 1 receptor (Homo sapiens) (UniProt P07333). Briefly: Selectivity interaction (KinomeScan (DiscoverX)) EUB0000229b CSF1R. The conditions noted are these: at 10 µM.
The target of assay [3] is WD repeat-containing protein 5 (Homo sapiens) (UniProt P61964). Briefly: Selectivity interaction (PWWP, WD40, and Tudor domain panel (DSLS measurements, literature)) EUB0000270b WDR5.
In assay [4] the target is T1, Mitogen-activated protein kinase kinase kinase 5 (Homo sapiens) (UniProt Q99683).
T1 sequence (whole entry): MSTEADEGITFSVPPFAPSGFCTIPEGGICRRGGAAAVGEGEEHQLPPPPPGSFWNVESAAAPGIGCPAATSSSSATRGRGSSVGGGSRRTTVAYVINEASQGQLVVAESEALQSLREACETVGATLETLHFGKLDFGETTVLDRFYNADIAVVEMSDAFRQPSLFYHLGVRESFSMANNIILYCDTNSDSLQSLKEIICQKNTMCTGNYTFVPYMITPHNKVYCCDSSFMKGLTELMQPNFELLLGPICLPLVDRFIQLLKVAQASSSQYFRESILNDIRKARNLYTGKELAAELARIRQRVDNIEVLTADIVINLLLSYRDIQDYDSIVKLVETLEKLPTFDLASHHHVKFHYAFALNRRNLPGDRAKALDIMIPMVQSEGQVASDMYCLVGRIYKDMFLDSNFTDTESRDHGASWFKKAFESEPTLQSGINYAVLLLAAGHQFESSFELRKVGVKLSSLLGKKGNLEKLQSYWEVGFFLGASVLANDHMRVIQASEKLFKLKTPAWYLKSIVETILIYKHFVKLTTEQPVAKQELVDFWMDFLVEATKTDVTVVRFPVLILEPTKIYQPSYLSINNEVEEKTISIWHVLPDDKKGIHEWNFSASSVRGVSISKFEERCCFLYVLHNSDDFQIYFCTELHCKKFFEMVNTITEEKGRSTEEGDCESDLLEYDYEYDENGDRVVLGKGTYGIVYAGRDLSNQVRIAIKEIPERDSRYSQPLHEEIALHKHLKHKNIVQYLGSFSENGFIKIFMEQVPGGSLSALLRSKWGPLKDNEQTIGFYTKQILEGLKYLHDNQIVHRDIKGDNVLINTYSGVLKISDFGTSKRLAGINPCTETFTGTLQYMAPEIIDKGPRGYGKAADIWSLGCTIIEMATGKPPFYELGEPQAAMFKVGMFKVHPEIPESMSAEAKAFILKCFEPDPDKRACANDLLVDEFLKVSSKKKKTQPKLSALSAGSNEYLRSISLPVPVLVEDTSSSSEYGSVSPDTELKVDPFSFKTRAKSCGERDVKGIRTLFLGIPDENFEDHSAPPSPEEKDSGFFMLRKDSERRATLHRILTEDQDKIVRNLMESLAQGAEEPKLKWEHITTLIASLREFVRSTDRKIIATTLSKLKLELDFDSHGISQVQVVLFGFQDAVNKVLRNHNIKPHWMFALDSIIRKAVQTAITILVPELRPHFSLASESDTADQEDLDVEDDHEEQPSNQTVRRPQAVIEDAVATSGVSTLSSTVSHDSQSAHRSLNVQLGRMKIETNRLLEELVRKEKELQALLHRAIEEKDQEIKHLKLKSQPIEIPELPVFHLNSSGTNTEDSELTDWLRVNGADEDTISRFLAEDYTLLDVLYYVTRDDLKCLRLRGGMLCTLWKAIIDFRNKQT
The assay is described as follows: Selectivity interaction (Kinase panel (DSF assay)) EUB0001559a MAP3K5. (In general: In DSF a fluorescence change marks the thermal transition of the protein.)

Assay [5] concerns the target Casein kinase I isoform gamma-3 (Homo sapiens) (UniProt Q9Y6M4). Briefly: Selectivity interaction (KinomeScan (DiscoverX)) EUB0000618a CSNK1G3. Particulars: at 10 µM.
The target in assay [6] is Serine/threonine-protein kinase MRCK gamma (Homo sapiens) (UniProt Q6DT37). Particulars: at 10 µM.
In assay [7] the target is T2, Phosphatidylinositol 5-phosphate 4-kinase type-2 gamma (Homo sapiens) (UniProt Q8TBX8).
T2 sequence (whole entry): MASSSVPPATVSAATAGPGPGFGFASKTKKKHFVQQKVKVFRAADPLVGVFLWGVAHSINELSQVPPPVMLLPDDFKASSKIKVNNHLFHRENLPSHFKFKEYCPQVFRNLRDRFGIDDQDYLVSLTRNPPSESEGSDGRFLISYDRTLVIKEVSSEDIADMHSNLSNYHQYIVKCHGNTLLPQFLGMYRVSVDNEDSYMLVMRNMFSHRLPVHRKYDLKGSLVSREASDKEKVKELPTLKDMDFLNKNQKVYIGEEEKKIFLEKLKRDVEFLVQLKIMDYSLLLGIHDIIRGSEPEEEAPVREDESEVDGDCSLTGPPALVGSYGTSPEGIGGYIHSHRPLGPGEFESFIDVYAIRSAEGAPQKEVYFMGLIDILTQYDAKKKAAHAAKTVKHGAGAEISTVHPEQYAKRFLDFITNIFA
The assay is described as follows: Selectivity interaction (KinomeScan (DiscoverX)) EUB0000595a PIP4K2C. Particulars: at 10 µM.

pKd: −log10 of the molar value.

Macrophage colony-stimulating factor 1 receptor (Homo sapiens), sequence (P07333 whole entry, the tested form may be a part): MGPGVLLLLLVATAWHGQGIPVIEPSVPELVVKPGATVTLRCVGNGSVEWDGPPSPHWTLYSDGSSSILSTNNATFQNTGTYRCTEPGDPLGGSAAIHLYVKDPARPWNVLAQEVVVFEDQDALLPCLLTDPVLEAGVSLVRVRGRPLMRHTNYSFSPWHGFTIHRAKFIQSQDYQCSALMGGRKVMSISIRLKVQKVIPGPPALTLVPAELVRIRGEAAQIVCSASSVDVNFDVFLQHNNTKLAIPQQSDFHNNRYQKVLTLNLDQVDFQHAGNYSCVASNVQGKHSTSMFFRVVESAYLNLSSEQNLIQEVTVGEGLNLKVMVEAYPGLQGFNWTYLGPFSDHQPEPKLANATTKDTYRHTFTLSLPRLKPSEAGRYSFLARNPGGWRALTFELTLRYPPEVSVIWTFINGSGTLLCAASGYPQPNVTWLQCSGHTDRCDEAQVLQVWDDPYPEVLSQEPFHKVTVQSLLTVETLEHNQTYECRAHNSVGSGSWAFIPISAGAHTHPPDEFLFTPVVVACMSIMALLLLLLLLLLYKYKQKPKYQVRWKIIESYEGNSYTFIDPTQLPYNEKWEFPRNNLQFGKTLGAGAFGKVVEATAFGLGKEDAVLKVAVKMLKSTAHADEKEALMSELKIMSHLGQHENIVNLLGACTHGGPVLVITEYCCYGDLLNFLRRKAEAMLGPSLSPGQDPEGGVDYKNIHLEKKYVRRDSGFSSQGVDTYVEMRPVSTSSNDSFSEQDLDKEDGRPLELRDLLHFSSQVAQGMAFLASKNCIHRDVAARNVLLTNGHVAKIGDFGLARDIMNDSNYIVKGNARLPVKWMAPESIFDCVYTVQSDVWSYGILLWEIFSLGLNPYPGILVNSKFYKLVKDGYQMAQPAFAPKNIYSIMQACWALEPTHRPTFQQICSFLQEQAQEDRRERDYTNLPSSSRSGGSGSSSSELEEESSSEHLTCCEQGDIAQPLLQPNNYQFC
Glycogen synthase kinase-3 alpha, sequence (P49840 whole entry): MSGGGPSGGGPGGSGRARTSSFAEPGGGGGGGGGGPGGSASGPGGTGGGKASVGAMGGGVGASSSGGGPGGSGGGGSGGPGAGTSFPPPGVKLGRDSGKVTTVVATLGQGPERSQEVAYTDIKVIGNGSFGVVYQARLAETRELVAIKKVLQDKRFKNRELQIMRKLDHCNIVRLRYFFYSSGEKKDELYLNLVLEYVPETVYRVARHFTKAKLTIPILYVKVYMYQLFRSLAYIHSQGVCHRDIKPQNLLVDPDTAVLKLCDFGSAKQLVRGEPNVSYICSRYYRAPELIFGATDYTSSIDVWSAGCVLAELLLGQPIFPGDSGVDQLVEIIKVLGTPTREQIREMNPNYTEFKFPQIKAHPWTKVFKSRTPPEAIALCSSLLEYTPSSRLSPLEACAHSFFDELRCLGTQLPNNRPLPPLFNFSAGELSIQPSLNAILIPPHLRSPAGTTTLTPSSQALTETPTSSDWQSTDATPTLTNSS
Serine/threonine-protein kinase MRCK gamma (Homo sapiens), sequence (Q6DT37 whole entry): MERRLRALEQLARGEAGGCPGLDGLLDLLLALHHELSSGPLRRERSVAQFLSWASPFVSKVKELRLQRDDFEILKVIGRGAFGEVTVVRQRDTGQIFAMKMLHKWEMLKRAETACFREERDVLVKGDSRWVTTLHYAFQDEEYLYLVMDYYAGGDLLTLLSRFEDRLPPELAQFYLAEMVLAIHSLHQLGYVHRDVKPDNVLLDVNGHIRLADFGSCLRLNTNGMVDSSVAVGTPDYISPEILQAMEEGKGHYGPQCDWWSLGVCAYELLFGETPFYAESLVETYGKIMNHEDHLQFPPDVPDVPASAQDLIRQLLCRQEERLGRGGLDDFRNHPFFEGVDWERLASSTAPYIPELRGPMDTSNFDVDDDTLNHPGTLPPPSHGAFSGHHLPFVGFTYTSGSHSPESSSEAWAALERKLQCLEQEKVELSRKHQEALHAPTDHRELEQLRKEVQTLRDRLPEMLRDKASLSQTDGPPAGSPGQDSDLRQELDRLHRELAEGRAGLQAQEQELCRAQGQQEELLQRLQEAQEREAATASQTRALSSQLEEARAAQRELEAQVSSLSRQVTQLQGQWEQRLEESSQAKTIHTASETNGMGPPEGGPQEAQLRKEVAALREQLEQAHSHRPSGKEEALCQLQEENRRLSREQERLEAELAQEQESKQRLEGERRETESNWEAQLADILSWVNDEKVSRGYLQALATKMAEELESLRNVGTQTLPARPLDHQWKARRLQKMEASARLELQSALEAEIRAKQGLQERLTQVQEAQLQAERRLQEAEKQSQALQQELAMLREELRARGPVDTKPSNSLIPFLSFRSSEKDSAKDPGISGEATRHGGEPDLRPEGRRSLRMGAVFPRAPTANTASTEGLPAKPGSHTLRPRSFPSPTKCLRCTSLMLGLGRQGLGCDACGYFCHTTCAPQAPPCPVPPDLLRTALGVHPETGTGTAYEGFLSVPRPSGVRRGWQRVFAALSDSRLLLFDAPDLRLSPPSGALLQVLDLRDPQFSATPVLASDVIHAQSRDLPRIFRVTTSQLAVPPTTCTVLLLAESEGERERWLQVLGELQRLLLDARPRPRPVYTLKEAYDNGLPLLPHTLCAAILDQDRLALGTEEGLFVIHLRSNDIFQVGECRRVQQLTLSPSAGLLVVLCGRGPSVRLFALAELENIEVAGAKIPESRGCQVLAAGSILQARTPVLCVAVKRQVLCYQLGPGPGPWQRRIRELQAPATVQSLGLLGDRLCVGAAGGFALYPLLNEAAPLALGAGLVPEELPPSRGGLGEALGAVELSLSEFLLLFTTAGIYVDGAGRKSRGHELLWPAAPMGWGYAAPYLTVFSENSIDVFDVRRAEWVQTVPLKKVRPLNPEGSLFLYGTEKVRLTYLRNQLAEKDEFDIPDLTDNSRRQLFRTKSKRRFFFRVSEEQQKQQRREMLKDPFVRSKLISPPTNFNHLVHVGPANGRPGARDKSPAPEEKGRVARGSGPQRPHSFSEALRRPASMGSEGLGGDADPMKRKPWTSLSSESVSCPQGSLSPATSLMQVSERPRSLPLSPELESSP
Casein kinase I isoform gamma-3 (Homo sapiens), sequence (Q9Y6M4 whole entry, looked up, canonical isoform): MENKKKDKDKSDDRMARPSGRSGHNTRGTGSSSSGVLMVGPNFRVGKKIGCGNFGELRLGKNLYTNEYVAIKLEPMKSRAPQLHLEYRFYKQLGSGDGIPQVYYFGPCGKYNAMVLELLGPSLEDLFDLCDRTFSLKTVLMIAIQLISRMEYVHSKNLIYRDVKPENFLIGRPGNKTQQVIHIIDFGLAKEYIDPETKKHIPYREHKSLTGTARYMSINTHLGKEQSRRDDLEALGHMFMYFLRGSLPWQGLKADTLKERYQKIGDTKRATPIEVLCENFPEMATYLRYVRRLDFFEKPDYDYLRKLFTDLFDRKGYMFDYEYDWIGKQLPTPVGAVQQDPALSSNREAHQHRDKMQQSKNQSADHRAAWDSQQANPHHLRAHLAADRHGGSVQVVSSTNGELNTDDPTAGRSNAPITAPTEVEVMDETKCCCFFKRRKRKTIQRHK

Usually pKd stands for the negative decadic logarithm of the Kd, by convention in mol/L. In assay [1], `Cn1cc(-n2cnc3c(NCc4nc5cc(Cl)c(Cl)cc5[nH]4)nc(N4CCOCC4)nc32)cn1` gave a pKd of 5.92. For the molecule `COc1cc(N(C)c2ccnc3ccc(C(F)(F)F)cc23)cc(OC)c1OC`, in assay [2], the % binding was 91%. `Cc1cc(CN)cc(C)c1-c1ncn(C)c1-c1cncn1C` gave a dTagg in assay [3] of -0.7 K. In assay [4], `CN(C(=O)c1cnn2cccnc12)c1cc2c(cc1N1CCOCC1)C(=O)N(C[C@@H](F)C(C)(C)O)C2` came in with a dTM of -0.3 K. As for `O[C@H]1CC[C@H](Nc2ncc3nc(Nc4c(F)cc(F)cc4F)n([C@H]4CCOC4)c3n2)CC1`, the % of control in assay [5] was determined as 100%. For the molecule `COCC(=O)NC/C=C/c1ccc2ncnc(Nc3ccc(Oc4ccc(C)nc4)c(C)c3)c2c1` [CP-724714], the % of control in assay [6] came to 90%; in assay [7], 84%.
